Experiments:
rabbits (eye) = conditions: rabbit, in vivo
rabbits (dermal) = conditions: rabbit, in vivo
[1] = in vivo

Q: With PPG-20 Methyl Glucose Ether Distearate as the substance, how does the Draize test score (rabbits (eye)) read?
A: The Draize test score was “negligible”.

Q: And the Eye irritation (rabbits (eye))?
A: Its Eye irritation is “Practically non-irritating”.

Q: And the Primary dermal irritant (rabbits (dermal))?
A: The Primary dermal irritant was “not a primary dermal irritant”.

Q: And the Primary dermal irritation (rabbits (dermal))?
A: Its Primary dermal irritation is “Not a primary dermal irritant”.

Q: And the “Comedogenic Assay” value [1]?
A: Its value is “Non-comedogenic”.

Reference: US4687843A, “Esterified propoxylated glucose compositions” (Amerchol Corporation, priority 1986, dated 1987)
